We go through nine compounds from patent publication US11882828B2, “Mosquito vector control compositions, methods and products utilizing same” (priority 2015, dated 2024).

Series [1] relates to Anopheles stephensi. Nature of the series: whole plant or invertebrate. As for the experimental part:
(§1) The individual wells of six (6) well tissue culture plates were treated with 250 μl of an ethanol solution containing a test compound at a defined concentration. Once the deposits were dry, ten non-blood fed adult female Aedes aegypti or Anopheles stephensi (each between two to five day old) were added to each well, and sustained with a 10% sucrose solution in a cotton wool plug.
(§2) Assessment of the mortality was carried out at 48 hours.
(§3) Each treatment was replicated twice, with the mean mortality recorded.

The subject of series [2] is Aedes aegypti. Nature of the series: whole plant or invertebrate. On the procedure:
as §1, §2, §3

Series [3] has as its system Anopheles stephensi (Indian malaria mosquito). Nature of the series: whole plant or invertebrate. On the procedure: […] Once the deposits were dry, five non-blood fed adult female Anopheles stephensi (between two to five days old) were added to each well, and sustained with a 10% sucrose solution in a cotton wool plug. Assessment of the knockdown after 1 hour, and mortality after 48 hours was carried out.
(§4) In case of multiple tests, the mean value is reported.

The subject of series [4] is Anopheles stephensi. Nature of the series: Example B7: evaluation of insecticide impregnated polymer surfaces. It counts as in vivo. The following applies: AI content 2 wt %, after one hour. The text has this:
(§5) Preparation of polymeric sheets: Certain methoxyacrylate were Impregnated into three polymers: LDPE (low density polyethylene), HDPE (high density polyethylene) and PP (polypropylene) in different concentrations by mixing the respective polymer with a compound at high temperatures and the resultant polymeric material were then mould into thin discs or plaques.
(§6) Twenty four hours prior to the relevant assessment intervals, three to five day old non-blood fed adult mosquitoes were taken from the culture and lightly anaesthetised with carbon dioxide. Ten females were selected and placed in a 250 ml plastic cup, retained with a net lid, provided with a 10% sucrose solution soaked in a cotton wool bung and held under culturing environmental conditions.
(§7) After twenty four hours, impregnated polymer sheets (measuring about 150 mm in diameter and about 0.1 mm in thickness) were removed from storage and wrapped around the glazed side of an 11 cm ceramic tile and held in place with an elastic band. A cup of the pre-selected mosquitoes were again lightly anaesthetised with carbon dioxide and transferred from the holding cup to the base of a 9 cm plastic Petri dish. The relevant impregnated polymer sheet was placed over the Petri dish and held in place with an elastic band. Once the mosquitoes had recovered from the anaesthetic, ca. 1 minute, the impregnated polymer sheet was placed on a holding rack, such that treated side was at an angle of […] to the horizontal.
(§8) After one hour an assessment of mosquito knockdown was made. A mosquito was said to be knocked down if it was unable to right itself once it had fallen over. The mosquitoes were lightly anaesthetised again, and removed from the Petri dish exposure chamber and returned to the holding cups. The mosquitoes were supplied with a 10% sucrose solution soaked in a cotton wool bung and held under culturing environmental conditions. An assessment of mortality was made 24 hours after exposure. A mosquito was said to be dead if it is unable to right itself once it had fallen over.

The subject of series [5] is Aedes aegypti. Described as above. It counts as in vivo. The note with it: AI content 2 wt %, after one hour.
Text: as §5, §6, §7, §8

For series [6], the system named is FUMOZ. The series can be described thus: Example B5: bottle based cross resistance study (CDC bottle assay). It counts as in vivo. The following applies: Anopheles funestus, 24 h. On the procedure: (§9) Based on the “CDC bottle assay” (described at http://www.cdc.gov/malaria/resources/pdf/fsp/ir_manual/ir_cdc_bioassay_en.pdf) 1 ml of ethanol containing a test compound at a defined concentration was added to a 250 ml glass bottle and the bottles were placed on a rolling table to coat the inner surfaces as the solvent evaporated. Once dry, twenty five non-blood fed adult female mosquitoes of the appropriate species and strains (each three day old) were aspirated from the stock culture and gently blown into the exposure bottles. The lid of the bottle was replaced and the bottle placed upright out of direct sun light under standard culture conditions, nominally 28C and 60-80% relative humidity.
(§10) A stopwatch was started, and the assessment of the knock-down were made after 15 minutes and 60 minutes. A mosquito was said to be knocked down if it was unable to stand, following the CDC definition. The bottles were replaced in an upright position when not being assessed.
(§11) After one hour the mosquitoes were carefully removed from the bottle with an aspirator and placed in a recovery cup. The mosquitoes were supplied with a 10% sucrose solution on a cotton wool bung, and stored under culture conditions. Assessments of the mortality were made after 24 hours.
(§12) Each treatment was replicated a minimum of four times, with the mean knockdown or mortality recorded. In each study, a set of bottles was infested with a known insecticide susceptible strain of mosquitoes from the same genera as the resistant strains.

Series [7] relates to VK7. The description is as above. It counts as in vivo. The note with it: Anopheles coluzzii, Table B5b, after 24 hours, read-out: Mortality. As for the experimental part:
as §9, §10, §11, §12

Series [8] concerns An. Gambiae Kisumu sus. The series is described as above. The note with it: Anopheles gambiae, 24 h. It counts as in vivo. As for the experimental part: as §9, §10, §11, §12
In series [9] the test system is Aedes aegypti (Yellow fever mosquito). Nature of the series: whole plant or invertebrate. On the procedure:
[…] Once the deposits were dry, five non-blood fed adult female Aedes aegypti (between two to five days old) were added to each well, and sustained with a 10% sucrose solution in a cotton wool plug. Assessment of the knockdown after 1 hour, and mortality after 48 hours was carried out.
as §4

[10] abbreviates: Anopheles stephensi, 1 h, read-out: Knockdown.
[11] abbreviates: HDPE, polymer 8 to 12 weeks old.
The mark [12] stands for this setting: LDPE, polymer 8 to 12 weeks old.
The mark [13] stands for this setting: Aedes aegypti, 1 h, read-out: Knockdown.

Regarding `CO/C=C(/C(=O)OC)c1ccccc1CO/N=C(\C)OC` [Compound 22], the mortality at 5 ppm came out at 100% in series [1] (Anopheles stephensi, 48 h) and 100% in series [2] (Aedes aegypti, 48 h). For the same compound, the pest or weed control at 20 ppm in series [3] (setting [10]) and in series [9] (setting [13]) was 100% in each case. Further, the mortality at 20 ppm in series [3] (Anopheles stephensi, 48 h) worked out at 100%; in [9] (Aedes aegypti, 48 h) it was 100%. Besides, the knock-down in series [4] (HDPE, polymer 2 to 4 weeks old) was 100%; in series [4] (setting [11]), 90%; in series [4] (LDPE, polymer 2 to 4 weeks old) it was 100%; in series [4] (setting [12]), 80%; in series [4] (PP, polymer 2 to 4 weeks old), 100%; in series [4] (PP, polymer 8 to 12 weeks old), 100%. The knock-down in series [5] (HDPE, polymer 2 to 4 weeks old) was 93%; in series [5] (HDPE, polymer 6 to 8 weeks old), 95%; in series [5] (LDPE, polymer 2 to 4 weeks old), 100%; in [5] (LDPE, polymer 6 to 8 weeks old) it was 100%; in series [5] (PP, polymer 2 to 4 weeks old), 100%; in series [5] (PP, polymer 6 to 8 weeks old), 100%. Also, the mortality at 25 ppm amounted to 68% in series [6], 96% in series [7] and 100% in series [8].

Take `CO/C=C(/C(=O)OC)c1ccccc1Oc1ncnc(C(C)(C)C)n1` [Compound 5, Methyl (E)-2-[2-[(4-tert-butyl-1,3,5-triazin-2-yl)oxy]phenyl]-3-methoxy-prop-2-enoate]: the mortality at 5 ppm was determined as 100% in series [1] (Anopheles stephensi, 48 h) and 85% in series [2] (Aedes aegypti, 48 h). The pest or weed control at 20 ppm in series [3] (setting [10]) and in [9] (setting [13]) was 100% each time. Further, the mortality at 20 ppm is 100% in series [3] (Anopheles stephensi, 48 h) and 100% in [9] (Aedes aegypti, 48 h). Further, the knock-down in [4] (HDPE, polymer 2 to 4 weeks old) was 100%; in series [4] (setting [11]), 50%; in [4] (LDPE, polymer 2 to 4 weeks old), 80%; in series [4] (setting [12]), 70%; in series [4] (PP, polymer 2 to 4 weeks old) it was 90%; in series [4] (PP, polymer 8 to 12 weeks old), 20%. For the same compound, the knock-down in series [5] (HDPE, polymer 2 to 4 weeks old) stood at 33%; in series [5] (HDPE, polymer 6 to 8 weeks old), 60%; in series [5] (LDPE, polymer 2 to 4 weeks old), 13%; in series [5] (LDPE, polymer 6 to 8 weeks old), 85%; in [5] (PP, polymer 2 to 4 weeks old), 80%; in series [5] (PP, polymer 6 to 8 weeks old), 70%.

In the case of `CO/C=C(/C(=O)OC)c1ccccc1Oc1cc(C(F)(F)C(F)(F)F)ncn1` [Compound 17], the mortality at 5 ppm in [1] (Anopheles stephensi, 48 h) was determined as 55%; in series [2] (Aedes aegypti, 48 h), 5%. Also, the pest or weed control at 20 ppm in series [3] (setting [10]) and in series [9] (setting [13]) was 100% in each case. In addition, the mortality at 20 ppm came out at 100% in [3] (Anopheles stephensi, 48 h) and 100% in [9] (Aedes aegypti, 48 h). The knock-down in [5] (LDPE, polymer 4 to 6 weeks old) is 100%.

For the compound `CO/C=C(/C(=O)OC)c1ccccc1CO/N=C(\C)C(C)C` [Compound 12], the mortality at 5 ppm in series [1] (Anopheles stephensi, 48 h) was found to be 100%; in [2] (Aedes aegypti, 48 h) it was 43%. Moreover, the pest or weed control at 20 ppm in [3] (setting [10]) and in [9] (setting [13]) was 100% in each case. The mortality at 20 ppm in series [3] (Anopheles stephensi, 48 h) came out at 100%; in series [9] (Aedes aegypti, 48 h), 100%. In addition, the knock-down in [4] (HDPE, polymer 2 to 4 weeks old) is recorded as 100%; in [4] (setting [11]) it was 100%; in series [4] (LDPE, polymer 2 to 4 weeks old), 100%; in [4] (setting [12]) it was 30%; in series [4] (PP, polymer 2 to 4 weeks old), 100%; in series [4] (PP, polymer 8 to 12 weeks old), 100%. Besides, the knock-down in series [5] (HDPE, polymer 2 to 4 weeks old) is listed as 97%; in series [5] (HDPE, polymer 6 to 8 weeks old) it was 100%; in series [5] (LDPE, polymer 2 to 4 weeks old) it was 100%; in [5] (LDPE, polymer 6 to 8 weeks old), 95%; in series [5] (PP, polymer 2 to 4 weeks old) it was 100%; in [5] (PP, polymer 6 to 8 weeks old) it was 100%.

With `CC1(C)[C@H](C(=O)O[C@H](C#N)c2cccc(Oc3ccccc3)c2)[C@@H]1/C=C(\Cl)C(F)(F)F` (racemic) [Lambda-cyhalothrin, reference compound], the mortality at 0.2 ppm in series [1] (Anopheles stephensi, 48 h) was 84%; in [2] (Aedes aegypti, 48 h) it was 99%. Also, the pest or weed control at 2 ppm amounted to 83% in series [3] (setting [10]) and 92% in [9] (setting [13]). For the same compound, the mortality at 2 ppm stood at 100% in series [3] (Anopheles stephensi, 48 h) and 100% in series [9] (Aedes aegypti, 48 h).

Take `CO/C=C(/C(=O)OC)c1ccccc1CO/N=C(\C)c1cc(C(F)(F)C(F)(F)F)ncn1` [Compound 18]: the mortality at 5 ppm in series [1] (Anopheles stephensi, 48 h) was found to be 100%; in series [2] (Aedes aegypti, 48 h), 70%. For the same compound, the figures for the pest or weed control at 20 ppm in [3] (setting [10]) and in series [9] (setting [13]) were 100% and 0%, respectively. The mortality at 20 ppm in series [3] (Anopheles stephensi, 48 h) came out at 100%; in series [9] (Aedes aegypti, 48 h), 40%.

As for `CO/C=C(/C(=O)OC)c1ccccc1COc1nccnc1C(F)(F)F` [Compound 20, Methyl (E)-3-methoxy-2-[2-[[3-(trifluoromethyl)pyrazin-2-yl]oxymethyl]phenyl]prop-2-enoate], the mortality at 5 ppm is 100% in [1] (Anopheles stephensi, 48 h) and 70% in series [2] (Aedes aegypti, 48 h). Besides, the pest or weed control at 20 ppm in series [3] (setting [10]) and in [9] (setting [13]) was 100% throughout. Besides, the mortality at 20 ppm was 100% in [3] (Anopheles stephensi, 48 h) and 100% in [9] (Aedes aegypti, 48 h).

Turning to `CO/C=C(/C(=O)OC)c1ccccc1Oc1nnc(C(C)(C)C)o1` [Compound 2, methyl (E)-2-[2-[(5-tert-butyl-1,3,4-oxadiazol-2-yl)oxy]phenyl]-3-methoxy-prop-2-enoate], the mortality at 5 ppm in [1] (Anopheles stephensi, 48 h) was found to be 100%; in [2] (Aedes aegypti, 48 h), 90%. The pest or weed control at 20 ppm in series [3] (setting [10]) is 40%; in series [9] (setting [13]), 0%. Also, the mortality at 20 ppm in [3] (Anopheles stephensi, 48 h) is 100%; in [9] (Aedes aegypti, 48 h) it was 80%.

For the compound `Clc1ccc(C(c2ccc(Cl)cc2)C(Cl)(Cl)Cl)cc1` [DDT, reference compound], the mortality was 59% in [1] (5 ppm, at 48 hours); 85% in series [2] (5 ppm, at 48 hours); 80% in series [3] (10 ppm, after 48 hours); 90% in [9] (10 ppm, after 48 hours). The Knockdown in series [3] (10 ppm, after 1 hour) is 70%; in [9] (10 ppm, after 1 hour), 35%.

One may read the mortality as the percentage killed.
